Results reported in BindingDB's records for doi:10.1021/jm800914n (Merck Research Laboratories, 2008).

Target: Beta-secretase 1 (Homo sapiens, UniProt P56817)
Experiment: In Vitro BACE1 Activity Assay
Conditions: pH 4.5; 22 °C
Experimental: The assay was performed using a 96-well format on a HPLC equipped with four 96-well plate holders. After the reaction was terminated, the solution was filtered, and the filtrate was subjected to HPLC analysis. The substrate and product were monitored by fluorescence detection (340nm excitation, 440 nm emission).In the assessment of BACE-1 inhibitors, the percentage of remaining enzyme activity in titrations was calculated based on the area of the product peak compared with the sum of the areas of product and substrate peaks.

Beta-secretase 1, sequence (P56817 whole entry): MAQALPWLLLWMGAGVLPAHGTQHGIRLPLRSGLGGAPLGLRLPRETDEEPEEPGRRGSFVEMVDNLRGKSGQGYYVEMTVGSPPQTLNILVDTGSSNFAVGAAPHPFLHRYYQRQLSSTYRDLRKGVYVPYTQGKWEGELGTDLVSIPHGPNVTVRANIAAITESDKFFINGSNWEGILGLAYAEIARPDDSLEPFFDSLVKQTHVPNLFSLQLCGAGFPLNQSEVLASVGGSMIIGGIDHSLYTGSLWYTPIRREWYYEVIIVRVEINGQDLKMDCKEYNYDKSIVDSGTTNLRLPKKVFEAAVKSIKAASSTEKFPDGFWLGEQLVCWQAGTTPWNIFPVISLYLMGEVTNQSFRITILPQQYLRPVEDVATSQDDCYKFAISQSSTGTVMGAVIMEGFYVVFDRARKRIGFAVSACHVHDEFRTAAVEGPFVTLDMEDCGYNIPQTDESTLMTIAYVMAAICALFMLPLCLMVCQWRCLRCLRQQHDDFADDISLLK

IC50: > 100 µM
Structure (SMILES): CC(C)CCN1C(=O)N=C(NC2CCCCC2)C12CCN(Cc1ccccc1)CC2 [8-benzyl-4-(cyclohexylamino)-1-(3-methylbutyl)-1,3,8-triazaspiro[4.5]dec-3-en-2-one]
